Values quoted from earlier work, collected in patent publication US20190083388A1, “SYNTHENTIC TRANSDERMAL CANNABIDIOL FOR THE TREATMENT OF FOCAL EPILEPSY IN ADULTS” (ZYNERBA PHARMACEUTICALS, INC., priority 2017, published 2019).
Where two headings read alike, the source gives them in different places.

Experiments:
[1] = not given; remark: listed apart in the source
CB2 receptors = CB2 receptors (Homo sapiens, UniProt P34972)
CB2 receptors, sequence (P34972 whole entry): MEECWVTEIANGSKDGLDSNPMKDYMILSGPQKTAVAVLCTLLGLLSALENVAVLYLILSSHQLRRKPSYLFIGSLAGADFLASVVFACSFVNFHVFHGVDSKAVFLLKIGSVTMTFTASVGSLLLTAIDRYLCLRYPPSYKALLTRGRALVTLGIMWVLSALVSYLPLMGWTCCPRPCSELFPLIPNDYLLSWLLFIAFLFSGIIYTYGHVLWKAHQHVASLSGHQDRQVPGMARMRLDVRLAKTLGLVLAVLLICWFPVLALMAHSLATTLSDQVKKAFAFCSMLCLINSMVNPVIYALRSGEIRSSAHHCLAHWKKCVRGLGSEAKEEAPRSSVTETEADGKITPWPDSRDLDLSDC

In the case of `C=C(C)C1CCC(C)=CC1c1c(O)cc(CCCCC)cc1O` (stereo not shown) [CBD, 2-[3-methyl-6-(1-methylethenyl)-2-cyclohexen-1-yl]-5-pentyl-1,3-benzenediol], the bioavailability (oral) is listed as “≈ 6%”, the bioavailability (transdermal delivery) is listed as “about 25%” and the solubility in water [1] is listed as “virtually insoluble”. The “affinity for CB2 receptors” value (CB2 receptors) was “low affinity”.
